Experimental data reported in PubChem BioAssay AID330 (DTP/NCI, 2004).
Inconclusive results and toxic doses are left out.

Tested on: P388 leukemia ip, CD2F1 mice, survival T/C
Experiment: NCI In Vivo Anticancer Drug Screen. Data for tumor model P388 Leukemia (intraperitoneal) in CD2F1 (CDF1) mice
Conditions: endpoint: median survival time, higher = longer survival
Method in brief: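 Mice carrying the transplanted tumor received test compound or vehicle. Survival was recorded in each group, and the value is the treated-group measurement divided by that of the vehicle-treated control group.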

[1] = dose: 50.0 mg/kg/injection, schedule: Q01DX005 (ip), vehicle: Klucel (hydroxypropylcellulose) (HPC)
[2] = dose: 100.0 mg/kg/injection, schedule: Q01DX005 (ip), vehicle: Klucel (hydroxypropylcellulose) (HPC)
[3] = dose: 200.0 mg/kg/injection, schedule: Q01DX005 (ip), vehicle: Klucel (hydroxypropylcellulose) (HPC)
[4] = dose: 50.0 mg/kg/injection, schedule: Q01DX005 (ip), vehicle: saline with Tween-80
[5] = dose: 100.0 mg/kg/injection, schedule: Q01DX005 (ip), vehicle: saline with Tween-80
[6] = dose: 200.0 mg/kg/injection, schedule: Q01DX005 (ip), vehicle: saline with Tween-80
[7] = dose: 60.0 mg/kg/injection, schedule: Q01DX005 (ip), vehicle: Klucel (hydroxypropylcellulose) (HPC)
[8] = dose: 120.0 mg/kg/injection, schedule: Q01DX005 (ip), vehicle: Klucel (hydroxypropylcellulose) (HPC)
[9] = dose: 240.0 mg/kg/injection, schedule: Q01DX005 (ip), vehicle: Klucel (hydroxypropylcellulose) (HPC)
[10] = dose: 50.0 mg/kg/injection, schedule: Q01DX009 (ip), vehicle: saline with Tween-80
[11] = dose: 100.0 mg/kg/injection, schedule: Q01DX009 (ip), vehicle: saline with Tween-80
[12] = dose: 50.0 mg/kg/injection, schedule: Q01DX009 (ip), vehicle: saline
[13] = dose: 60.0 mg/kg/injection, schedule: Q01DX005 (ip), vehicle: saline with Tween-80
[14] = dose: 120.0 mg/kg/injection, schedule: Q01DX005 (ip), vehicle: saline with Tween-80
[15] = dose: 240.0 mg/kg/injection, schedule: Q01DX005 (ip), vehicle: saline with Tween-80
[16] = dose: 100.0 mg/kg/injection, schedule: Q01DX009 (ip), vehicle: saline

For `O=C1c2ccncc2C(=O)c2c(O)ccc(O)c21`, the T/C (dose: 12.5 mg/kg/injection, schedule: Q01DX009 (ip), vehicle: distilled water + Tween-80) was 102 % of control, the T/C (dose: 25.0 mg/kg/injection, schedule: Q01DX009 (ip), vehicle: distilled water + Tween-80) was 100 % of control and the T/C (dose: 50.0 mg/kg/injection, schedule: Q01DX009 (ip), vehicle: distilled water + Tween-80) was 98 % of control. For the same compound, the T/C (dose: 100.0 mg/kg/injection, schedule: Q01DX009 (ip), vehicle: distilled water + Tween-80) was 109 % of control.

`COc1ccc(/C=N/N2C(=O)c3ccccc3C2=O)c(OC)c1` was tested, and the T/C [1] was 99 % of control, the T/C [2] was 98 % of control and the T/C [3] was 96 % of control.

With `C/C1=C/C2=CC(C)C[C@@H]2C(=O)[C@]2(C)C(=O)CC(C)(C)[C@H]2CC1=O` (stereo not given in full) the T/C (dose: 0.13 mg/kg/injection, schedule: Q01DX009 (ip), vehicle: Klucel (hydroxypropylcellulose) (HPC)) was 100 % of control, the T/C (dose: 0.25 mg/kg/injection, schedule: Q01DX009 (ip), vehicle: Klucel (hydroxypropylcellulose) (HPC)) was 103 % of control and the T/C (dose: 0.25 mg/kg/injection, schedule: Q01DX009 (ip), vehicle: saline with Tween-80) was 99 % of control. The T/C (dose: 0.5 mg/kg/injection, schedule: Q01DX009 (ip), vehicle: Klucel (hydroxypropylcellulose) (HPC)) was 102 % of control, the T/C (dose: 0.5 mg/kg/injection, schedule: Q01DX009 (ip), vehicle: saline with Tween-80) was 108 % of control and the T/C (dose: 1.0 mg/kg/injection, schedule: Q01DX009 (ip), vehicle: Klucel (hydroxypropylcellulose) (HPC)) was 106 % of control. The T/C (dose: 1.0 mg/kg/injection, schedule: Q01DX009 (ip), vehicle: saline with Tween-80) was 99 % of control, the T/C (dose: 2.0 mg/kg/injection, schedule: Q01DX009 (ip), vehicle: saline with Tween-80) was 101 % of control and the T/C (dose: 125.0 micrograms/kg/injection, schedule: Q01DX009 (ip), vehicle: saline + alcohol) was 105 % of control. For the same compound, the T/C (dose: 250.0 micrograms/kg/injection, schedule: Q01DX009 (ip), vehicle: saline + alcohol) was 103 % of control, the T/C (dose: 500.0 micrograms/kg/injection, schedule: Q01DX009 (ip), vehicle: saline + alcohol) was 112 % of control and the T/C (dose: 1000.0 micrograms/kg/injection, schedule: Q01DX009 (ip), vehicle: saline + alcohol) was 107 % of control. For the same compound, the T/C (dose: 2000.0 micrograms/kg/injection, schedule: Q01DX009 (ip), vehicle: saline + alcohol) was 105 % of control.

For `CCC1CC(O)c2c(O)c3c(c(O)c2C1O)C(=O)c1cccc(O)c1C3=O` (stereo not given) (tested in a mixture with another compound), the T/C (dose: 0.25 mg/kg/injection, schedule: Q04DX003 (ip), vehicle: other) was 102 % of control, the T/C (dose: 30.0 micrograms/kg/injection, schedule: Q01DX009 (ip), vehicle: other) was 107 % of control and the T/C (dose: 60.0 micrograms/kg/injection, schedule: Q01DX009 (ip), vehicle: other) was 106 % of control. The T/C (dose: 130.0 micrograms/kg/injection, schedule: Q01DX009 (ip), vehicle: other) was 98 % of control.

With `COc1cc(C=Nc2cc(Cl)c(O)c(Cl)c2)ccc1N(CCCl)CCCl` the T/C (dose: 12.0 mg/kg/injection, schedule: Q04DX003 (ip), vehicle: saline) was 204 % of control, the T/C (dose: 17.0 mg/kg/injection, schedule: Q04DX003 (ip), vehicle: saline) was 263 % of control and the T/C (dose: 25.0 mg/kg/injection, schedule: Q04DX003 (ip), vehicle: saline) was 100 % of control.

In the case of `Cn1cc(Cl)c2ccccc2c1=O`, the T/C [4] is reported as 101 % of control, the T/C [5] is reported as 99 % of control and the T/C [6] is reported as 100 % of control.

In the case of `O=C(CCCO)c1nc2ccccc2s1`, the T/C [7] is reported as 106 % of control, the T/C [8] is reported as 101 % of control and the T/C [9] is reported as 100 % of control.

`S=C(SCc1ccccc1)N1CCN(C(=S)SCc2ccccc2)CC1` was tested, and the T/C [10] was 89 % of control, the T/C [11] was 91 % of control and the T/C (dose: 200.0 mg/kg/injection, schedule: Q01DX009 (ip), vehicle: saline with Tween-80) was 91 % of control.

In the case of `Cc1cc[n+](CC(N)=O)cc1`, the T/C (dose: 12.5 mg/kg/injection, schedule: Q01DX009 (ip), vehicle: saline) is reported as 96 % of control, the T/C (dose: 25.0 mg/kg/injection, schedule: Q01DX009 (ip), vehicle: saline) is reported as 94 % of control and the T/C [12] is reported as 96 % of control.

In the case of `CCCCCCCCCC(=O)Oc1c2ccoc2cc2oc(=O)ccc12`, the T/C (dose: 100.0 mg/kg/injection, schedule: Q01DX001 (ip), vehicle: Klucel (hydroxypropylcellulose) (HPC)) is reported as 98 % of control, the T/C (dose: 200.0 mg/kg/injection, schedule: Q01DX001 (ip), vehicle: Klucel (hydroxypropylcellulose) (HPC)) is reported as 91 % of control and the T/C (dose: 400.0 mg/kg/injection, schedule: Q01DX001 (ip), vehicle: Klucel (hydroxypropylcellulose) (HPC)) is reported as 103 % of control.

With `Cc1cc(NC(=O)c2ccc(C(=O)Nc3ccc(C4=NCCN4)c(C)c3)cc2)ccc1C1=NCCN1` the T/C (dose: 100.0 mg/kg/injection, schedule: Q04DX003 (ip), vehicle: saline with Tween-80) was 118 % of control, the T/C (dose: 200.0 mg/kg/injection, schedule: Q04DX003 (ip), vehicle: saline with Tween-80) was 104 % of control and the T/C (dose: 400.0 mg/kg/injection, schedule: Q04DX003 (ip), vehicle: saline with Tween-80) was 104 % of control.

In the case of `O=C(O)CCCc1cccc2c1CCCC2`, the T/C [1] is reported as 102 % of control, the T/C [2] is reported as 100 % of control and the T/C [3] is reported as 100 % of control.

For `COC1=C(OC)C(=O)C2=C(OCO2)C1=O`, the T/C [13] was 104 % of control, the T/C [14] was 100 % of control and the T/C [15] was 107 % of control.

For `c1nc2c(o1)CCCC2`, the T/C [13] was 104 % of control, the T/C [14] was 101 % of control and the T/C [15] was 95 % of control.

For `ONc1ccccc1C(F)(F)F`, the T/C [12] was 97 % of control and the T/C [16] was 95 % of control.

`Cc1cc(O)c(C(c2ccccc2)c2c(O)cc(C)[nH]c2=O)c(=O)[nH]1` was tested, and the T/C (dose: 25.0 mg/kg/injection, schedule: Q01DX009 (ip), vehicle: saline with Tween-80) was 90 % of control, the T/C [10] was 91 % of control and the T/C [11] was 86 % of control.

With `CCC(C(=O)O)C1(C(=O)O)CCCCCC1` (stereo not given) the T/C (dose: 100.0 mg/kg/injection, schedule: Q01DX001 (ip), vehicle: saline with Tween-80) was 101 % of control, the T/C (dose: 100.0 mg/kg/injection, schedule: Q04DX002 (ip), vehicle: saline with Tween-80) was 98 % of control and the T/C (dose: 200.0 mg/kg/injection, schedule: Q01DX001 (ip), vehicle: saline with Tween-80) was 106 % of control. For the same compound, the T/C (dose: 200.0 mg/kg/injection, schedule: Q04DX002 (ip), vehicle: saline with Tween-80) was 98 % of control, the T/C (dose: 400.0 mg/kg/injection, schedule: Q01DX001 (ip), vehicle: saline with Tween-80) was 108 % of control and the T/C (dose: 400.0 mg/kg/injection, schedule: Q04DX002 (ip), vehicle: saline with Tween-80) was 109 % of control.

`CCN1/C(=C\C2=C([O-])C(=C/c3sc4ccccc4[n+]3CC)/C2=O)Sc2ccccc21` was tested, and the T/C [7] was 103 % of control, the T/C [8] was 119 % of control and the T/C [9] was 86 % of control.

For `CC(=O)C(C(=O)CCSCC(N)C(=O)O)C(SCC(N)C(=O)O)c1ccc(Cl)c(Cl)c1` (stereo not given), the T/C (dose: 50.0 mg/kg/injection, schedule: Q01DX005 (ip), vehicle: saline) was 103 % of control, the T/C (dose: 100.0 mg/kg/injection, schedule: Q01DX005 (ip), vehicle: saline) was 103 % of control and the T/C (dose: 200.0 mg/kg/injection, schedule: Q01DX005 (ip), vehicle: saline) was 102 % of control.

For `O=C(O)c1cc(O)c(O)c(OC(=O)c2cc(O)c(O)c(O)c2CNc2ccc3cc(S(=O)(=O)O)cc(S(=O)(=O)O)c3c2)c1`, the T/C [4] was 110 % of control, the T/C [5] was 115 % of control and the T/C [6] was 112 % of control.

`CN(C)CCSc1sc(N)nc1-c1ccccc1` was tested, and the T/C [12] was 100 % of control, the T/C [16] was 98 % of control and the T/C (dose: 200.0 mg/kg/injection, schedule: Q01DX009 (ip), vehicle: saline) was 114 % of control.

`C1CN(/N=N/N2CCC2)C1` was tested, and the T/C (dose: 6.25 mg/kg/injection, schedule: Q01DX005 (ip), vehicle: Klucel (hydroxypropylcellulose) (HPC)) was 98 % of control, the T/C (dose: 12.5 mg/kg/injection, schedule: Q01DX005 (ip), vehicle: Klucel (hydroxypropylcellulose) (HPC)) was 100 % of control and the T/C (dose: 25.0 mg/kg/injection, schedule: Q01DX005 (ip), vehicle: Klucel (hydroxypropylcellulose) (HPC)) was 102 % of control.
